These results are taken from ChEMBL document CHEMBL3877302, “Design and Synthesis of a New Series of 4-Heteroarylamino-1'-azaspiro[oxazole-5,3'-bicyclo[2.2.2]octanes as α7 Nicotinic Receptor Agonists. 1. Development of Pharmacophore and Early Structure-Activity Relationship” (J Med Chem, 2016).

Active and inactive are the calls of the source. The rule behind the calls is not given here.

Data set [1] in a line: Metabolic stability in rat microsomes assessed as compound remaining measured after 10 mins. It is filed as ADME, Microsome. The note with it: read-out: Stability.
The target of data set [2] is T1, Neuronal acetylcholine receptor subunit alpha-7 (Rattus norvegicus, UniProt Q05941). Nature of the data set: Displacement of [125I]Tyr54-alpha-bungarotoxin from rat alpha7 nAChR expressed in HEK293 cell membranes co-expressing human RIC3 measured after 2 hrs by gamma counting method.
Data set [3] deals with Mus musculus. The data set can be described thus: Cognitive enhancing effect in C57Bl/6 mouse at 3 and 10 mg/kg, sc administered 30 mins prior to training measured after 24 hrs by novel recognition assay. Type of data set: functional, organism-based.
Data set [4] can be described thus: Plasma concentration in Wistar rat at 10 mg/kg, sc measured after 30 mins by LC-MS/MS analysis. It is filed as ADME, organism-based.
Data set [5] is described as follows: Drug uptake in Wistar rat brain at 10 mg/kg, sc measured after 30 mins by LC-MS/MS analysis. Type of data set: ADME, organism-based. Particulars: read-out: Drug uptake.
Data set [6] concerns the target Voltage-gated inwardly rectifying potassium channel KCNH2 (Homo sapiens, UniProt Q12809). Nature of the data set: Inhibition of human ERG by patch clamp assay.
The nature of data set [7]: Metabolic stability in mouse microsomes assessed as compound remaining measured after 10 mins. It is filed as ADME, Microsome. Particulars: read-out: Stability.
A short description of data set [8]: Metabolic stability in human microsomes assessed as compound remaining measured after 10 mins. Type of data set: ADME, Microsome. Particulars: read-out: Stability.
In data set [9] the target is Nicotinic acetylcholine receptor alpha-1/beta-1/delta/epsilon (Rattus norvegicus, UniProt P09660+P25108+P25109+P25110). The data set can be described thus: Agonist activity at rat alpha1beta1deltaepsilon nAChR expressed in HEK293 cells for 2 mins by FLIPR assay. Type of data set: cell-based.
The nature of data set [10]: Selectivity ratio of IC50 for human 5-HT3A expressed in HEK293 cells to EC50 for rat alpha7 nAChR expressed in HEK293 cells co-expressing human RIC3. It is filed as ADME, cell-based.
The nature of data set [11]: Oral bioavailability in rat at 10 mg/kg. Particulars: in vivo. Type of data set: ADME, organism-based.
The target in data set [12] is Neuronal acetylcholine receptor; alpha3/beta4 (Rattus norvegicus, UniProt P04757+P12392). The data set can be described thus: Agonist activity at rat alpha3beta4 nAChR expressed in HEK293 cells for 2 mins by FLIPR assay. It is filed as cell-based.
Data set [13] concerns the target T2, 5-hydroxytryptamine receptor 3A (Homo sapiens, UniProt P46098).
T2 sequence (P46098 whole entry): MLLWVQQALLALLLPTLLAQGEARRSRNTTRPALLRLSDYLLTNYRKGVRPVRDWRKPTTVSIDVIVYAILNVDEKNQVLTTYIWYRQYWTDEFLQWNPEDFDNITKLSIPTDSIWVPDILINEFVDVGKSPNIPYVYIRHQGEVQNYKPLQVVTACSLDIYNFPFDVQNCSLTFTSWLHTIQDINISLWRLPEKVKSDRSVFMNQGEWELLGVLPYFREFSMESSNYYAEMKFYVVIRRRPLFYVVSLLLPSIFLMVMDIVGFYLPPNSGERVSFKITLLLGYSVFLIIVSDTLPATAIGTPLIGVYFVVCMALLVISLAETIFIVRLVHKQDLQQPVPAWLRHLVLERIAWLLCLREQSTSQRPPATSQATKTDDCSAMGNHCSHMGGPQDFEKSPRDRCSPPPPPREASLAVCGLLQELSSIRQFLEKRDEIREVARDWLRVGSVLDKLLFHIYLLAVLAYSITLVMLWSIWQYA
Nature of the data set: Antagonist activity at human 5-HT3A expressed in HEK293 cells assessed as reduction in acetylcholine-induced activity preincubated for 30 mins followed by addition of acetylcholine measured for 2 mins by Fluo-4AM dye based FLIPR assay. Type of data set: cell-based.

The nature of data set [14]: Selectivity ratio of IC50 for human 5-HT3A expressed in HEK293 cells to EC50 for rat alpha4beta2 nAChR expressed in HEK293 cells. Type of data set: ADME, cell-based.
Data set [15] is described as follows: Clearance in rat. Particulars: in vivo. Type of data set: ADME.
Data set [16] can be described thus: Selectivity ratio of IC50 for human 5-HT3A expressed in HEK293 cells to EC50 for rat alpha3beta4 nAChR expressed in HEK293 cells. Type of data set: ADME, cell-based.
The nature of data set [17]: Ratio of drug level in Wistar rat brain to plasma at 10 mg/kg, sc. Particulars: read-out: BPR. Type of data set: ADME, organism-based.
Data set [18] concerns the target Neuronal acetylcholine receptor; alpha4/beta2 (Rattus norvegicus, UniProt P09483+P12390). The data set can be described thus: Agonist activity at rat alpha4beta2 nAChR expressed in HEK293 cells for 2 mins by FLIPR assay. Type of data set: cell-based.
In data set [19] the target is T1, Neuronal acetylcholine receptor subunit alpha-7. Nature of the data set: Agonist activity at rat alpha7 nAChR expressed in HEK293 cells co-expressing human RIC3 measured for 2 mins by FLIPR assay. It is filed as cell-based.
Data set [20] can be described thus: Selectivity ratio of IC50 for human 5-HT3A expressed in HEK293 cells to EC50 for rat alpha1beta1deltaepsilon nAChR expressed in HEK293 cells. It is filed as ADME, cell-based.
Data set [21] has as its target T1, Neuronal acetylcholine receptor subunit alpha-7. The data set can be described thus: Partial agonist activity at rat alpha7 nAChR expressed in HEK293 cells co-expressing human RIC3 at holding potential of -90 mV by whole-cell voltage clamp technique. It is filed as cell-based.

T1 sequence (Q05941 whole entry): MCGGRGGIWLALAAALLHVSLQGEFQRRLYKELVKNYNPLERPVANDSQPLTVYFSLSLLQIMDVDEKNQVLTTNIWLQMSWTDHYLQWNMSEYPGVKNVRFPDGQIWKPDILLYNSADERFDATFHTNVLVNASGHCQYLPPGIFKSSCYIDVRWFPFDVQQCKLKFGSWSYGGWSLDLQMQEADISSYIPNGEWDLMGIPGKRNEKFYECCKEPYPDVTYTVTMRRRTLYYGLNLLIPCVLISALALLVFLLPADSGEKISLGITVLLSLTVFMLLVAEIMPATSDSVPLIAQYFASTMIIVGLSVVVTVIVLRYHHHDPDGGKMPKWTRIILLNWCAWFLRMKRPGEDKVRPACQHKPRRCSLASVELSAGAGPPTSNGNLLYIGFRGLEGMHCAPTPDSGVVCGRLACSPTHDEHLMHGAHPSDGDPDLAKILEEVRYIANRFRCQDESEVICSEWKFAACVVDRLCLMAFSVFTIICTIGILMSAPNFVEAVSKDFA
Chain of Neuronal acetylcholine receptor; alpha4/beta2 (P09483 whole entry): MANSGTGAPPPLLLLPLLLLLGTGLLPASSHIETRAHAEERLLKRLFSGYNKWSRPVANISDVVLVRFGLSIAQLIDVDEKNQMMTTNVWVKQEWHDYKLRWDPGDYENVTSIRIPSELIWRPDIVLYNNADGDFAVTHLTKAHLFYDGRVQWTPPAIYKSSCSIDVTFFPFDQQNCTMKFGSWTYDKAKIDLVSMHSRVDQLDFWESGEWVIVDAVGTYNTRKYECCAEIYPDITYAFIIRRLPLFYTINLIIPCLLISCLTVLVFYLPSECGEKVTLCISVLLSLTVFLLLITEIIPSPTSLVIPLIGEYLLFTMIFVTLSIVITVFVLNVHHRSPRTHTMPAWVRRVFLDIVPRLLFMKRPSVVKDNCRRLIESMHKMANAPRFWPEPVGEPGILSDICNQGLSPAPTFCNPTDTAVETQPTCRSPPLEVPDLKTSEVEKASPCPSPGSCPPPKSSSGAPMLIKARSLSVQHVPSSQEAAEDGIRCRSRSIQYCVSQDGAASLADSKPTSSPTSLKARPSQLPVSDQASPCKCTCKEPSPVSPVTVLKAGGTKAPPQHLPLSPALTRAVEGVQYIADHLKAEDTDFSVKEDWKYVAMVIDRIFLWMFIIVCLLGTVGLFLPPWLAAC
Chain of Neuronal acetylcholine receptor; alpha4/beta2 (P12390 whole entry): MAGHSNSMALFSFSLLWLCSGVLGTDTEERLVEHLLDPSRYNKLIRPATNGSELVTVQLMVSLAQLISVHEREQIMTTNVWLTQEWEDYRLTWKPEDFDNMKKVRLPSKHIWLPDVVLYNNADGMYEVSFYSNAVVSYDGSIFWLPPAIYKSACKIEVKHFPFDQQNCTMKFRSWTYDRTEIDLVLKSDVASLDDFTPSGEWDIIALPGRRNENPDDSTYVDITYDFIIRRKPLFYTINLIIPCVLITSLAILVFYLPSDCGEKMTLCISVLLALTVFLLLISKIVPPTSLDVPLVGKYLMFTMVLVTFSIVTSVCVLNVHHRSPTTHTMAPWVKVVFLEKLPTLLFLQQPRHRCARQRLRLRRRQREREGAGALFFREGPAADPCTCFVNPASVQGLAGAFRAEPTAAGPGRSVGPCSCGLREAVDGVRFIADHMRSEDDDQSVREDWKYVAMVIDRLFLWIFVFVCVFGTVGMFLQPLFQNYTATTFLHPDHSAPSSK
Chain of Voltage-gated inwardly rectifying potassium channel KCNH2 (Q12809 whole entry): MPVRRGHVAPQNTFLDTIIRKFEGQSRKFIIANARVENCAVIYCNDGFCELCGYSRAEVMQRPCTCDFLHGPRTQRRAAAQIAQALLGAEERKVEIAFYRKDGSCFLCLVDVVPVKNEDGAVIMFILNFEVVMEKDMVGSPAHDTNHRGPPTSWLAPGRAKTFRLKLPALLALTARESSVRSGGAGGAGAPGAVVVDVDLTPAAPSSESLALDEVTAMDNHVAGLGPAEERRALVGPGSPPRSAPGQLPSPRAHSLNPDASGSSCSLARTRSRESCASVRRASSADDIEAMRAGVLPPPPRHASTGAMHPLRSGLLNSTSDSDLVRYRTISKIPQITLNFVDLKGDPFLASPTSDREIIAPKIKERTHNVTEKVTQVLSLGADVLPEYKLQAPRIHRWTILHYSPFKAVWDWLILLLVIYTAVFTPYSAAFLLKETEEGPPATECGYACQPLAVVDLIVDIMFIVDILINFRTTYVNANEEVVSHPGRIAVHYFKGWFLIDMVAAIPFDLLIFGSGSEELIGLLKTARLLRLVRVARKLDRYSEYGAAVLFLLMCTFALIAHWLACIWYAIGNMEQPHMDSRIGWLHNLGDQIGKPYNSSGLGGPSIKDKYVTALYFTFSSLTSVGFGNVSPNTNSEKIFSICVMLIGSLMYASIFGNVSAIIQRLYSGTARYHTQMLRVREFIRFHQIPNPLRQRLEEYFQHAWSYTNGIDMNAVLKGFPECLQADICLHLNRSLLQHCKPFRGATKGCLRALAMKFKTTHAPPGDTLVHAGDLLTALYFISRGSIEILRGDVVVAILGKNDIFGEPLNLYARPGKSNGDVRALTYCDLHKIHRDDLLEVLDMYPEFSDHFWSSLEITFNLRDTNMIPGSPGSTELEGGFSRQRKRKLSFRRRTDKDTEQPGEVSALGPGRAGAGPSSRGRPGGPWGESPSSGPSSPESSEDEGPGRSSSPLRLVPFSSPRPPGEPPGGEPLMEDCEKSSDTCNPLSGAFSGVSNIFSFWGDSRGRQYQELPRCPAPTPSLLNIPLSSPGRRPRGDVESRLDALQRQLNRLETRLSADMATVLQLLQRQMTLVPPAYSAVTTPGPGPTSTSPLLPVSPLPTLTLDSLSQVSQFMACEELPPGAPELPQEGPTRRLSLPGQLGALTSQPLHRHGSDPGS
Chain of Neuronal acetylcholine receptor; alpha3/beta4 (P04757 whole entry): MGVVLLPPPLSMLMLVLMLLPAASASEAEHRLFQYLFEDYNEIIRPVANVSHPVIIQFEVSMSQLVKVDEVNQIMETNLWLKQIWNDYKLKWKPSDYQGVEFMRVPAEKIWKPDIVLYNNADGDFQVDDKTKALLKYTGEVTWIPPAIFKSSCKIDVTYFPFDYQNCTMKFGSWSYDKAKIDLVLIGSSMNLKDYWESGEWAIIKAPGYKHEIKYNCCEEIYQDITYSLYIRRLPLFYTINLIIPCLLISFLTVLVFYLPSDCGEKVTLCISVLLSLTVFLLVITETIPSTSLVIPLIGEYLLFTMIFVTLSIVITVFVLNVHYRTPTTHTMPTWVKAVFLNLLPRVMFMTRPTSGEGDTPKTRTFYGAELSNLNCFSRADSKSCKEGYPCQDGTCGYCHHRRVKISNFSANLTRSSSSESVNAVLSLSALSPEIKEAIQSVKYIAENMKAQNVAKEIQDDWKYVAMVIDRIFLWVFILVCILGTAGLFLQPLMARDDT
Chain of Neuronal acetylcholine receptor; alpha3/beta4 (P12392 whole entry): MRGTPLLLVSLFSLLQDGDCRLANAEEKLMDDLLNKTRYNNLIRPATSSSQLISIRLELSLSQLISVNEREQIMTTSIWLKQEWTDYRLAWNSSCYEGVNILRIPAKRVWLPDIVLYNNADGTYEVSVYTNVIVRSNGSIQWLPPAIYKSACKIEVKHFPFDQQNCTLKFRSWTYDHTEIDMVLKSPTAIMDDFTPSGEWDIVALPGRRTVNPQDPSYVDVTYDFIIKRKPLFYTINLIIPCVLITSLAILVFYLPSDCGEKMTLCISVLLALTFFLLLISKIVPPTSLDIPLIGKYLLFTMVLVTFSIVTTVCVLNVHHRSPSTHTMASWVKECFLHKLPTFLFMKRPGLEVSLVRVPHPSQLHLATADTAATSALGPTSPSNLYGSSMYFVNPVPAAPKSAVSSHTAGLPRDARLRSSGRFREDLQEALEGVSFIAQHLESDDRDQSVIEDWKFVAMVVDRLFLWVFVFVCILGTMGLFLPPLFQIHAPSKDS

In general, Ki refers to the dissociation constant of the complex between target and ligand, obtained from inhibition or displacement. Lower therefore signals higher affinity. Broadly, the IC50 is the concentration that inhibits the measured activity by half. The term EC50 denotes the midpoint of the concentration-response curve. High values mean weaker potency, low ones greater potency. A word on the bioavailability: it is the share of a dose that reaches the circulation, judged against a reference dose that is usually intravenous. Lower therefore signals little systemic uptake. Usually clearance stands for the volume of plasma or blood freed of the substance per unit of time. A low value points to a low capacity for elimination. `COc1ccc2nc(NC3=NC[C@@]4(CN5CCC4CC5)O3)sc2c1`: the remaining at 10 min in data set [1], in data set [7] and in data set [8] was above 60% throughout. Further, the Ki in data set [2] lay in the range of 0.038 to 0.051 µM. Besides, the result in data set [3] was Active. Also, the results for the concentration at 0.5 h in data set [4] and in data set [5] were 0.76 µM and 5.3 µM, respectively. In addition, the IC50 amounted to 1.3 µM in data set [6] and 9.1 µM in data set [13]. Moreover, the EC50 in data set [9] was above 100 µM; in data set [12], above 100 µM; in data set [18] it was above 100 µM; in data set [19], 0.14 µM; in data set [21], 0.4 µM. The “Ratio IC50/EC50” value in [10] is on record as 66; in [14], above 700; in data set [16], above 700; in data set [20], above 700. In addition, the bioavailability in data set [11] stood at 24%. In addition, in [15], the clearance came out at 19.2 L/h/kg. The Kp in [17] was determined as 7.
